According to US20260151391A1, “TREATMENT OF MITOCHONDRIAL DISEASES WITH sGC STIMULATORS” (Tisento Therapeutics Inc., priority 2022, published 2026):
Like-named read-outs stand apart in the source and are kept apart here.

Legend:
sGC enzyme = assay: cGMP GloSensor cell-based assay, 384-well format; design: species or system human; settings: HEK293 GloSensor 40F cGMP cells, 10 μM DETA-NONOate; geometrical mean; I-20 and I-14: average of free acid and sodium salt; read-out: Glo EC50
Description: Human embryonic kidney cells (HEK293) cells expressing GloSensor™ 40F cGMP (Part No: CS182801, Promega) were used to evaluate the activity of test compounds. The luminescent biosensors (engineered luciferase) that were incorporated into these cells detect cGMP formed by the compounds stimulating the sGC enzyme and emit luminescence.
cGMP GloSensor cells were maintained in Dulbecco's Modification of Eagle's Medium (DMEM) supplemented with fetal bovine serum (FBS, 10% final) and hygromycine (200 ug/ml). The day before assay, cells were plated in DMEM with 10% FBS in a 50 μL volume at a density of 1.5×10^4 cells/well in a poly-D-lysine coated 384-well flat white-bottom plate (Corning Cat No 35661). […] Test compounds and Diethylenetriamine NONOate (DETA-NONOate) was diluted to 3 mM (20×) in serum-free CO2 independent medium and serially diluted at 4× dilutions to create 5× dose curve from which 10 ul was added to the wells (x μM concentration for test compound solution and 10 μM concentration for DETA-NONOate solution; wherein x is one of the following final concentrations: 30 μM, 7.5 μM, 1.9 μM, 469 nM, 117 nM, 29.3 nM, 7.3 nM, 1.83 nM, 0.46 nM, 0.11 nM, 0.03 nM) For the kinetics studies, luminescense was measured right away for 0.2 sec per well with Envision (Perkin Elmer). […]
(§1) Concentration response data were analyzed using a 4-parameter fit (log (agonist) vs. response-variable slope). […]

sGC = assay: cGMP neuronal cell-based assay (rat primary neurons); settings: rat primary hippocampal neurons, DETA-NO 10 μM or 30 μM, cGMP by LC-MS/MS; I-20 and I-14: average of free acid and sodium salt; read-out: sGC Neuron EC50
Experimental: Rat primary neurons were isolated from fetuses of 18-day pregnant Sprague-Dawley females. The fetuses were collected in Hanks' balanced salt solution (HBSS) and brains were rapidly removed. The cerebral hippocampi were isolated and mechanically fragmented. Further tissue digestion was performed with 0.25% (wt/vol) trypsin solution in HBSS without Ca2+ and Mg2+ for 15 min at 37° C. After trypsination, cells were washed and resuspended in neurobasal medium supplemented with 0.5 mM L-glutamine, 12.5 uM glutamic acid, 2% B-27 and 100 U/mL penicillin, and 100 μg/mL streptomycin. Cells were plated at a density of 26×10^3 or 3×10^4 or 4×10^4 cells/well in a poly-D-lysine coated 384-well flat clear-bottom plate (Corning Cat No 354662). Cells were incubated 6-7 days at 37° C. in a humidified chamber with 5% CO2. Media was removed and cells were washed 1× with HBSS containing Ca2+ and Mg2+, and replaced with 40 uL HBSS containing 0.5 mM IBMX, and incubated for 15 minutes at 37° C. […] Following centrifugation at 4° C. for 5 minutes at 1000×g to pellet cell debris, the supernatant was aspirated to a clean plate and the samples were analyzed for cGMP content. cGMP concentrations were determined from each sample using LC-MS/MS.
as §1

[1] = Non-human primate CSF pharmacokinetics (Study B), cisterna magna versus lumbar sampling; type: in vivo, Macaca fascicularis; settings: for Kp uu at 3 h / Kp uu at 24 h: female, Cynomolgus macaque, cynomolgus monkey, read-out: geomean ratio of CSF concentration to unbound concentration in plasma (Kp,uu)
Description: The objective of this study was to investigate the pharmacokinetics of Compound 1-14 after administration of a single […] bolus or oral gavage dose to cynomolgus monkeys on Day 1 and to evaluate differences in pharmacokinetic values when comparing CSF collected at the cisterna magna (as in Example 10A) versus lumbar locations. [table] • Species: Macaca fascicularis • Strain: Cynomolgus macaque • Number of Females: 4 • Age: Adult • Weight: 2.5-4 kg Single doses of Compound I-14 were administered intravenously as a bolus injection of a solution at 0.15 mg/kg and orally by gavage as a suspension at 0.5 mg/kg to a group of four female cynomolgus monkeys in a crossover design. Plasma samples were collected at 0.25 (15 min), 0.5 (30 min), 1, 2, 3, 6, 8, 12, 24, 32, and 48 h following the IV and PO doses. CSF samples were collected at 3 and 24 h for all animals from the cisterna magna in groups 1 and 2 and the lumbar from groups 3 and 4. Sample extracts were prepared by protein precipitation and Compound I-14 concentrations were measured using LC-MS/MS. Pharmacokinetic parameters were calculated.

[2] = CSF (cisterna magna) / unbound plasma, IV bolus 0.15 mg/kg, cisterna magna sampling
[3] = CSF (cisterna magna) / unbound plasma, oral gavage 0.5 mg/kg, cisterna magna sampling
[4] = CSF (lumbar) / unbound plasma, IV bolus 0.15 mg/kg, lumbar sampling
[5] = CSF (lumbar) / unbound plasma, oral gavage 0.5 mg/kg, lumbar sampling

For `Cc1cc(F)c(Cc2nc(-c3ncc(F)c(O)n3)cn3ccnc23)cc1F` [Compound I-14, 5-fluoro-2-(8-(2,5-difluoro-4-methylbenzyl)imidazo[1,2-a]pyrazin-6-yl)pyrimidin-4-ol], the EC50 (sGC enzyme) was no more than 100 nM, the EC50 (sGC) was no more than 100 nM and the “presence of compound in CSF” value ([1]; IV and PO administration, cisterna magna and lumbar sampling) was “observed in the CSF at 3 and 24 hours”. For the same compound, the Kp uu at 3 h [1, 2] was 2 to 3, the Kp uu at 3 h [1, 3] was 2 to 3 and the Kp uu at 24 h [1, 2] was 1 to 2. The Kp uu at 24 h [1, 3] was 2 to 3, the Kp uu at 3 h [1, 4] was 2 to 3 and the Kp uu at 3 h [1, 5] was 2 to 3. It also gave a Kp uu at 24 h [1, 4] of 1 to 2 and a Kp uu at 24 h [1, 5] of 2 to 3.
